Measurements reported in patent US7238813B2, “Chemical compounds” (Smithkline Beecham Corporation, priority 2000, dated 2007).

Each molecule was assayed against T1, GST-TIE2 (intracellular domains of human TIE2) (Homo sapiens, UniProt Q02763) (assay: TIE-2 enzyme assay (TIE2-E), LANCE method). Details: 80 uM ATP.
T1 construct: made in house
Assay type: biochemical
Protocol: TIE-2Enzyme Assay (TIE2-E)
The TIE-2 enzyme assay used the LANCE method (Wallac) and GST-TIE2, baculovirus expressed recombinant constructs of the intracellular domains of human TIE2 (amino acids 762–1104, GenBank Accession # L06139) tagged by GST). […] This peptide phosphorylation was detected using the following procedure: for enzyme preactivation, GST-TIE2 was incubated for 30 mins at room temperature with 2 mM ATP, 5 mM MgCl2 and 12.5 mM DTT in 22.5 mM HEPES buffer (pH7.4). Preactivated GST-TIE2 was incubated for 30 mins at room temperature in 96 well plates with 1 μM D1-15 peptide, 80 uM ATP, 10 mM MgCl2, 0.1 mg/ml BSA and the test compound (diluted from a 10 mM stock in DMSO, final DMSO concentration was 2.4%) in 1 mM HEPES (pH7.4). The reaction was stopped by the addition of EDTA (final concentration 45 mM). Streptavidin linked-APC (allophycocyanin, Molecular Probe) and Europium-labeled anti-phosphorylated tyrosine antibody (Wallac) were then added at the final concentration of 17 μg/well and 2.1 μg/well, respectively. The APC signal was measured using an ARVO multilabel counter. (Wallac Berthold Japan). The percent inhibition of activity was calculated relative to blank control wells. The concentration of test compound that inhibits 50% of activity (IC50) was interpolated using nonlinear regression (Levernberg-Marquardt) and the equation, y=Vmax (1−x/(K+x))+Y2, where “K” was equal to the IC50. The IC50 values were converted to pIC50 values, i.e., −log IC50 in Molar concentration.

T1 sequence (Q02763 762-1104): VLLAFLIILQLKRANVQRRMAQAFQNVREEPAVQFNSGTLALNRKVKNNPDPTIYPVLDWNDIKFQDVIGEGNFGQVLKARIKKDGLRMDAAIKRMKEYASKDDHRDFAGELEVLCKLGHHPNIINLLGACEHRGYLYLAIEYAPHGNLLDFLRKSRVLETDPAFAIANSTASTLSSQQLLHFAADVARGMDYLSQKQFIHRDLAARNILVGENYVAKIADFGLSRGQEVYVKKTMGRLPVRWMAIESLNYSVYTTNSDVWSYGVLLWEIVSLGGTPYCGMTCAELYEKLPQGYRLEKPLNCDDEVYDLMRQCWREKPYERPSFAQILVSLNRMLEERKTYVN

TIE2-E, −:
COC(=O)Nc1nc2cc(Oc3ccc(NC(=O)Nc4ccc(F)cc4)cc3)ccc2[nH]1 [Example 63, Methyl N-(5-(4-((4-fluorophenyl)aminocarbonylamino)phenoxy)-1H-benzimidazol-2-yl)carbamate]

IC50, 1000 to 10000 nM:
COC(=O)Nc1nc2cc(Oc3ccc(NC(=O)Nc4ccc(OC)cc4)cc3)ccc2[nH]1 [Example 62, Methyl N-(5-(4-((4-methoxyphenyl)aminocarbonylamino)phenoxy)-1H-benzimidazol-2-yl)carbamate]

IC50, < 100 nM:
Nc1nc2ccc(Oc3ccc(NC(=O)Nc4cc(C(F)(F)F)ccc4F)nc3)cc2n1Cc1ccccc1 [Example 113, 6-(6-((2-Fluoro-5-(trifluoromethyl)phenyl)aminocarbonylamino)-3-pyridyloxy)-1-benzyl-1H-benzimidazol-2-ylamine]

Each molecule was assayed against T2, GST-VEGFR2 (Homo sapiens, UniProt P35968) (assay: VEGF-R2 enzyme assay (VEGF-E), LANCE method). Details: 75 μM ATP.
T2 construct: GST-VEGFR2, baculovirus expressed recombinant constructs of the intracellular domains of human TIE2 tagged by GST; made in house
T2 sequence (P35968 786-1356 limits assumed): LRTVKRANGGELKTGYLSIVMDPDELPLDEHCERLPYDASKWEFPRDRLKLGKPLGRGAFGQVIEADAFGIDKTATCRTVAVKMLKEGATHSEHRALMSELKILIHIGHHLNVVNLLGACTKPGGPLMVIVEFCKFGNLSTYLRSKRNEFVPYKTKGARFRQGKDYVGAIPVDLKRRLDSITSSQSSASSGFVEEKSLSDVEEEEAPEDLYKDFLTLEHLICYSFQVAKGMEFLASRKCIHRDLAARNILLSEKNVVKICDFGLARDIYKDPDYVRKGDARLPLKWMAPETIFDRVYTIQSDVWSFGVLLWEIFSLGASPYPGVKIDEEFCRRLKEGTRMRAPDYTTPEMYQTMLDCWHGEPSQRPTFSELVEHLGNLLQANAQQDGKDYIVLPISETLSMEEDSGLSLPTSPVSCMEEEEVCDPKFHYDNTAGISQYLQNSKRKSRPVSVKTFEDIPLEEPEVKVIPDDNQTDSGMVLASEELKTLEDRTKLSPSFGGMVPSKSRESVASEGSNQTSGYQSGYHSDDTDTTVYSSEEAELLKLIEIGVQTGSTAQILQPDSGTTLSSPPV
Assay type: biochemical
Protocol: VEGF-R2 Enzyme Assay (VEGF-E)
The VEGF enzyme assay used the LANCE method (Wallac) and GST-VEGFR2, baculovirus expressed recombinant constructs of the intracellular domains of human […] tagged by GST. […] The reaction was stopped by the addition of EDTA (final concentration 50 mM). Streptavidin linked-APC (allophycocyanin, Molecular Probe) and Europium-labeled anti-phosphorylated tyrosine antibody (Wallac) were then added at the final concentration of 15 nM and 1 nM, respectively. The APC signal was measured using an ARVO multilabel counter (Wallac Berthold, Japan). The percent inhibition of activity was calculated relative to blank control wells. The concentration of test compound that inhibits 50% of activity (IC50) was interpolated using nonlinear regression (Levernberg-Marquardt) and the equation, y=Vmax (1−x/(K+x))+Y2, where “K” was equal to the IC50. The IC50 values were converted to pIC50 values, i.e., −log IC50 in Molar concentration.

IC50, 1000 to 10000 nM:
COCCOCC(=O)Nc1nc2cc(Oc3ccc(NC(=O)Nc4nnc(N5CCOCC5)[nH]4)cc3)ccc2[nH]1 [Example 163, N-(5-(4-((5-Morpholino-1,3,4-triazol-2-yl)aminocarbonylamino)phenoxy)-1H-benzimidazol-2-yl)(2-(methoxy)ethoxy)acetamide]

IC50, < 100 nM:
COC(=O)Nc1nc2cc(Oc3cccc(NC(=O)Nc4ccc(Oc5ccccc5)cc4)c3)ccc2[nH]1 [Example 125, Methyl N-(5-(3-((4-phenoxyphenyl)aminocarbonylamino)phenoxy)-1H-benzimidazol-2-yl)carbamate]
COC(=O)Nc1nc2cc(Oc3cccc(NC(=O)Nc4cccc(I)c4)c3)ccc2[nH]1 [Example 120, Methyl N-(5-(3-((3-iodophenyl)aminocarbonylamino)phenoxy)-1H-benzimidazol-2-yl)carbamate]
O=C(Nc1ccc(Oc2ccc3[nH]c(NC(=O)Nc4cc(C(F)(F)F)ccc4F)nc3c2)cc1)Nc1cc(C(F)(F)F)ccc1F [Example 133, 1-(5-(4-((2-Fluoro-5-(trifluoromethyl)phenyl)aminocarbonylamino)phenoxy)-1H-benzimidazol-2-yl)-3-(2-fluoro-5-(trifluoromethyl)phenyl)urea]
COC(=O)Nc1nc2cc(Oc3cccc(NC(=O)Nc4ccc(SC(F)(F)F)cc4)c3)ccc2[nH]1 [Example 117, Methyl N-(5-(3-((4-(trifluoromethylthio)phenyl)aminocarbonylamino)phenoxy)-1H-benzimidazol-2-yl)carbamate]
CCCCNC(=O)Nc1nc2ccc(Oc3ccc(NC(=O)Nc4cc(C(F)(F)F)ccc4F)cc3)cc2s1 [Example 137, 1-(6-(4-((2-Fluoro-5-(trifluoromethyl)phenyl)aminocarbonylamino)phenoxy)benzthiazol-2-yl)-3-(butyl)urea]
O=C(Nc1ccc(Cl)cc1)Nc1nc2cc(Oc3ccc(NC(=O)Nc4cc(C(F)(F)F)ccc4F)cc3)ccc2[nH]1 [Example 134, 1-(5-(4-((2-Fluoro-5-(trifluoromethyl)phenyl)aminocarbonylamino)phenoxy)-1H-benzimidazol-2-yl)-3-(4-chlorophenyl)urea]
CCCCNC(=O)Nc1nc2ccc(Oc3ccc(NC(=O)Nc4ccc(Cl)c(C(F)(F)F)c4)cc3)cc2s1 [Example 136, 1-(6-(4-((4-Chloro-3-(trifluoromethyl)phenyl)aminocarbonylamino)phenoxy)benzthiazol-2-yl)-3-(butyl)urea]
COC(=O)Nc1nc2cc(Oc3cccc(NC(=O)Nc4ccccc4OC(F)(F)F)c3)ccc2[nH]1 [Example 116, Methyl N-(5-(3-((2-(trifluoromethoxy)phenyl)aminocarbonylamino)phenoxy)-1H-benzimidazol-2-yl)carbamate]
COC(=O)Nc1nc2cc(Oc3ccc(NC(=O)Nc4cc(C(C)(C)C)on4)cc3)ccc2[nH]1 [Example 128, Methyl N-(5-(4-((5-tert-butylisoxazole-3-yl)aminocarbonylamino)phenoxy)-1H-benzimidazol-2-yl)carbamate]
COC(=O)Nc1nc2cc(Oc3cccc(NC(=O)Nc4cc(C(C)(C)C)on4)c3)ccc2[nH]1 [Example 129, Methyl N-(5-(3-((5-tert-butylisoxazole-3-yl)aminocarbonylamino)phenoxy)-1H-benzimidazol-2-yl)carbamate]
COC(=O)Nc1nc2cc(Sc3ccc(NC(=O)Nc4cc(C(C)(C)C)on4)cc3)ccc2[nH]1 [Example 130, Methyl N-(5-(4-((5-tert-butylisoxazole-3-yl)aminocarbonylamino)phenylthio)-1H-benzimidazol-2-yl)carbamate]
COC(=O)Nc1nc2cc(Oc3ccc(NC(=O)Nc4ccc(F)cc4)cc3)ccc2[nH]1 [Example 63, Methyl N-(5-(4-((4-fluorophenyl)aminocarbonylamino)phenoxy)-1H-benzimidazol-2-yl)carbamate]
COC(=O)Nc1nc2cc(Oc3cccc(NC(=O)Nc4cccc(Br)c4)c3)ccc2[nH]1 [Example 59, Methyl N-(5-(3-((3-bromophenyl)aminocarbonylamino)phenoxy)-1H-benzimidazol-2-yl)carbamate]
COC(=O)Nc1nc2cc(Oc3ccc(NC(=O)Nc4ccc5c(c4)CCC5)cc3)ccc2[nH]1 [Example 127, Methyl N-(5-(4-((5-indanyl)aminocarbonylamino)phenoxy)-1H-benzimidazol-2-yl)carbamate]
COC(=O)Nc1nc2ccc(C(=O)c3ccc(NC(=O)Nc4cc(C(F)(F)F)ccc4F)cc3)cc2[nH]1 [Example 78, Methyl N-(5-(4-((2-fluoro-5-(trifluoromethyl)phenyl)aminocarbonylamino)phenylcarbonyl)-1H-benzimidazol-2-yl)carbamate]
COC(=O)Nc1nc2cc(Oc3cccc(NC(=O)Nc4ccc(Cl)cc4)c3)ccc2[nH]1 [Example 61, Methyl N-(5-(3-((4-chlorophenyl)aminocarbonylamino)phenoxy)-1H-benzimidazol-2-yl)carbamate]
COC(=O)Nc1nc2cc(Oc3cccc(NC(=O)Nc4cccc(SC(F)(F)F)c4)c3)ccc2[nH]1 [Example 58]
COC(=O)Nc1nc2cc(Oc3cccc(NC(=O)Nc4cccc(Oc5ccccc5)c4)c3)ccc2[nH]1 [Example 60, Methyl N-(5-(3-((3-(phenoxy)phenyl)aminocarbonylamino)phenoxy)-1H-benzimidazol-2-yl)carbamate]
COC(=O)Nc1nc2cc(Oc3ccc(NC(=O)Nc4ccc(OC)cc4)cc3)ccc2[nH]1 [Example 62, Methyl N-(5-(4-((4-methoxyphenyl)aminocarbonylamino)phenoxy)-1H-benzimidazol-2-yl)carbamate]
COC(=O)Nc1nc2cc(Oc3cccc(NC(=O)Nc4ccc(Cl)c(C(F)(F)F)c4)c3)ccc2[nH]1 [Example 119, Methyl N-(5-(3-((4chloro-3-(trifluoromethyl)phenyl)aminocarbonylamino)phenoxy)-1H-benzimidazol-2-yl)carbamate]
COC(=O)Nc1nc2cc(Oc3cccc(NC(=O)Nc4ccccc4Oc4ccccc4)c3)ccc2[nH]1 [Example 124, Methyl N-(5-(3-((2-phenoxyphenyl)aminocarbonylamino)phenoxy)-1H-benzimidazol-2-yl)carbamate]

IC50, 100 to 1000 nM:
COC(=O)Nc1nc2cc(Oc3cccc(NC(=O)Nc4cc(Cl)ccc4Cl)c3)ccc2[nH]1 [Example 121, Methyl N-(5-(3-((2,5-dichlorophenyl)aminocarbonylamino)phenoxy)-1H-benzimidazol-2-yl)carbamate]
COC(=O)Nc1nc2cc(Oc3ccc(NC(=O)Nc4cccc(Oc5ccccc5)c4)cc3)ccc2[nH]1 [Example 123, Methyl N-(5-(4-((3-phenoxyphenyl)aminocarbonylamino)phenoxy)-1H-benzimidazol-2-yl)carbamate]
COC(=O)Nc1nc2cc(Oc3cccc(NC(=O)Nc4ccccc4C(F)(F)F)c3)ccc2[nH]1 [Example 118, Methyl N-(5-(3-((2-(trifluoromethyl)phenyl)aminocarbonylamino)phenoxy)-1H-benzimidazol-2-yl)carbamate]
